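Method: 48-hour compound exposure of cells in 96-well plates, five concentrations, linear interpolation of endpoints. At the GI50, growth is halved.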 Activity calls are given as the source filed them. No stated cut-off is given here; in the data, active = GI50 up to about 1.1 µM and inactive = higher.
Legend:
Assay in all cases: DTP human tumour cell line panel, 48 h
DMS-273 = test system: DMS-273
DMS-114 = test system: DMS-114
KM-20L2 = test system: KM-20L2
SNB-78 = test system: SNB-78
LXFL 529 = test system: LXFL 529
M19-MEL = test system: M19-MEL
XF498 = test system: XF498
RXF 631 = test system: RXF 631
HOP-18 = test system: HOP-18

Measured: GI50

CCN(c1ccc(Br)cc1)c1c(Br)c(=O)nc2ccccn12
inactive: DMS-273 83.2 µM | DMS-114 70.6 µM | KM-20L2 > 100 µM | SNB-78 > 100 µM | LXFL 529 > 100 µM | M19-MEL > 100 µM | XF498 > 100 µM | RXF 631 > 100 µM

CN(C(=O)C12C3(C(=O)C(C)(C)C)C4C5(C#N)C3C1(C(=O)C(C)(C)C)C5C42C(=O)C(C)(C)C)C(C)(C)C (stereo not given)
inactive: DMS-273 42.8 µM | DMS-114 17.7 µM | KM-20L2 > 50 µM | SNB-78 > 50 µM | LXFL 529 21.4 µM | M19-MEL > 50 µM | XF498 10.4 µM | RXF 631 42.4 µM

CC1OC(OC2CC(O)(C(=O)CO)Cc3c(O)c4c(c(O)c32)C(=O)c2ccccc2C4=O)CC(N)C1O (stereo not given)
active: DMS-273 < 0.01 µM | DMS-114 < 0.01 µM | KM-20L2 < 0.0117 µM | SNB-78 0.0637 µM | HOP-18 < 0.01 µM | LXFL 529 < 0.0238 µM | M19-MEL < 0.01 µM | RXF 631 0.0102 µM

CC1(c2cccc(C3CCC4(C=CC3=O)OCCO4)c2)OCCO1 (stereo not given)
inactive: DMS-273 10.9 µM | DMS-114 1.8 µM | KM-20L2 4.07 µM | SNB-78 19.4 µM | LXFL 529 1.62 µM | M19-MEL 5.62 µM

Cc1cc(/N=C2\C=C(Nc3cc(C)on3)C(=O)c3ccccc32)no1
inactive: DMS-273 80.4 µM | DMS-114 25.1 µM | KM-20L2 43.7 µM | SNB-78 24.7 µM | HOP-18 28.4 µM | LXFL 529 > 100 µM | M19-MEL 2.64 µM | XF498 35.6 µM | RXF 631 28.8 µM

CN(C)C(=S)/N=c1\sn(C)/c(=N\C(=S)N(C)C)n1C
inactive: DMS-273 36.7 µM | KM-20L2 > 100 µM | SNB-78 > 100 µM | HOP-18 > 100 µM | LXFL 529 > 100 µM | M19-MEL 25.8 µM | XF498 > 100 µM | RXF 631 > 100 µM

CC[C@@H]1NC(C(=O)OC)Cc2c1[nH]c1ccccc21 (stereo not given in full)
inactive: DMS-273 > 100 µM | DMS-114 > 100 µM | KM-20L2 > 100 µM | SNB-78 > 100 µM | HOP-18 > 100 µM | LXFL 529 > 100 µM | M19-MEL > 100 µM | RXF 631 > 100 µM

c1cc(-c2cn3c(n2)SCC3)ccn1
inactive: DMS-273 28.3 µM | DMS-114 > 55 µM | KM-20L2 > 100 µM | SNB-78 > 100 µM | HOP-18 > 100 µM | LXFL 529 > 90.6 µM | M19-MEL > 60 µM | XF498 > 100 µM

CC(/C=C/C(=O)c1sc(-n2nc(-c3ccccc3)cc2-c2ccccc2)nc1C)=C\c1ccccc1
inactive: DMS-273 > 10 µM | DMS-114 16.9 µM | KM-20L2 20.7 µM | SNB-78 > 10 µM | HOP-18 > 10 µM | LXFL 529 38.4 µM | M19-MEL 75 µM | XF498 > 10 µM | RXF 631 65.9 µM

COC(=O)[C@]12CC=C3O[C@@H]4OC5(CCCCC5)O[C@@H]4C3[C@@H]1C(=O)CCC2=O (stereo not given in full)
inactive: DMS-273 > 100 µM | DMS-114 > 100 µM | KM-20L2 > 100 µM | SNB-78 > 100 µM | HOP-18 > 100 µM | LXFL 529 > 100 µM | XF498 > 100 µM | RXF 631 > 100 µM

O=C1C2CN(Cc3ccccc3)CC1CN(CC1CC1)C2
inactive: DMS-273 > 100 µM | DMS-114 > 100 µM | KM-20L2 > 100 µM | HOP-18 > 100 µM | LXFL 529 > 100 µM | M19-MEL > 100 µM | XF498 > 100 µM

COc1ccc(/C=N/NS(=O)(=O)c2ccccc2)cc1
inactive: DMS-273 > 100 µM | DMS-114 63.1 µM | KM-20L2 > 100 µM | SNB-78 > 100 µM | HOP-18 > 100 µM | LXFL 529 > 100 µM | M19-MEL > 100 µM | XF498 > 100 µM

COC(=O)C(Cc1cc(OC)c(OC)c(OC)c1)(NC(=O)c1ccccc1)P(=O)(OC)OC (stereo not given)
inactive: DMS-273 > 100 µM | DMS-114 > 100 µM | KM-20L2 > 100 µM | SNB-78 > 100 µM | LXFL 529 > 100 µM | M19-MEL > 100 µM | XF498 > 100 µM | RXF 631 > 100 µM

O=C(CC1OC(O)C(Cl)=C1Cl)c1cccnc1 (stereo not given)
inactive: DMS-273 > 53 µM | DMS-114 > 41.1 µM | KM-20L2 > 100 µM | SNB-78 > 100 µM | HOP-18 > 100 µM | LXFL 529 > 56.1 µM | M19-MEL > 62.4 µM | XF498 > 100 µM | RXF 631 > 100 µM

C=C(CO)CC(O)c1ccccc1 (stereo not given)
inactive: DMS-273 > 100 µM | DMS-114 > 100 µM | KM-20L2 > 100 µM | SNB-78 > 100 µM | LXFL 529 > 100 µM | M19-MEL > 100 µM | XF498 > 100 µM | RXF 631 > 100 µM

CS(=O)(=O)N(N(CCCl)S(=O)(=O)c1ccccc1)S(C)(=O)=O
inactive: DMS-273 > 100 µM | KM-20L2 > 100 µM | HOP-18 31 µM | LXFL 529 > 100 µM | M19-MEL > 100 µM | XF498 > 100 µM | RXF 631 > 100 µM

CCN(CC)c1ccc2c(c1)Nc1cc(=C(C#N)C#N)c3ccccc3c1=N2
inactive: DMS-273 > 100 µM | DMS-114 > 100 µM | KM-20L2 > 100 µM | SNB-78 > 100 µM | HOP-18 > 100 µM | LXFL 529 > 100 µM | M19-MEL > 100 µM | XF498 > 100 µM | RXF 631 > 100 µM

COc1cc([C@@H]2c3cc4c(cc3[C@@H](OC3OC5COC(C)OC5C(O)C3O)[C@H]3COC(=O)[C@H]23)OCO4)cc(OC)c1O (stereo not given in full)
inactive: DMS-273 1.97 µM | DMS-114 5.57 µM | KM-20L2 70.8 µM | SNB-78 46.8 µM | HOP-18 28.3 µM | LXFL 529 26.5 µM | M19-MEL 34.7 µM | XF498 8.41 µM

CN(CCO)/N=N/c1n[nH]cc1C(N)=O
inactive: DMS-273 > 100 µM | DMS-114 > 100 µM | KM-20L2 > 86.7 µM | SNB-78 > 100 µM | HOP-18 > 100 µM | M19-MEL > 100 µM | XF498 > 100 µM

CC(=O)NC1C(O)CC(OCCCSCCN)(C(=O)O)OC1C(O)C(O)CO (stereo not given)
inactive: DMS-273 > 100 µM | DMS-114 > 100 µM | KM-20L2 > 100 µM | SNB-78 > 100 µM | HOP-18 > 100 µM | LXFL 529 > 100 µM | XF498 > 100 µM | RXF 631 > 100 µM

O=C(O)CCCNS(=O)(=O)c1ccc2ccccc2c1
inactive: DMS-273 > 100 µM | KM-20L2 > 100 µM | HOP-18 > 100 µM | LXFL 529 > 100 µM | M19-MEL > 100 µM | XF498 > 100 µM | RXF 631 > 100 µM

Cc1nc(-n2nc(-c3ccccc3)cc2-c2ccccc2)sc1C(=O)CC(=O)C(=O)Nc1ccc(Cl)c(Cl)c1
inactive: DMS-273 59.8 µM | DMS-114 33.6 µM | KM-20L2 45.8 µM | SNB-78 > 100 µM | HOP-18 > 100 µM | LXFL 529 45.1 µM | M19-MEL > 100 µM | RXF 631 > 100 µM

O=C1C(c2ccccc2)=C(c2ccccc2)C(c2ccc(CCCCCCc3ccc(C4=C(c5ccccc5)C(=O)C(c5ccccc5)=C4c4ccccc4)cc3)cc2)=C1c1ccccc1
inactive: DMS-273 > 100 µM | DMS-114 > 100 µM | KM-20L2 > 100 µM | SNB-78 > 100 µM | LXFL 529 > 100 µM | M19-MEL > 100 µM | RXF 631 > 100 µM

O=C1c2cc3c(cc2[C@@H]2NC4CCCC14O2)OCO3 (stereo not given in full)
inactive: DMS-273 > 100 µM | DMS-114 > 100 µM | KM-20L2 > 100 µM | SNB-78 > 100 µM | LXFL 529 > 100 µM | M19-MEL > 100 µM | XF498 > 100 µM

O=C(c1cc2c(C(F)(F)F)onc2c2ccccc12)C(F)(F)F
active: SNB-78 0.236 µM | LXFL 529 0.347 µM
inactive: DMS-273 1.49 µM | DMS-114 2.15 µM | KM-20L2 1.22 µM | HOP-18 6.47 µM | M19-MEL 3.1 µM | RXF 631 2.38 µM

CC(=O)OCCOCNC(=S)N/N=C/c1ccc([N+](=O)[O-])o1
inactive: DMS-273 37.9 µM | DMS-114 17.1 µM | KM-20L2 26.4 µM | SNB-78 > 100 µM | HOP-18 > 100 µM | LXFL 529 77.6 µM | M19-MEL 15.7 µM | XF498 > 100 µM | RXF 631 58.7 µM

— ChEMBL document CHEMBL1201862, “PubChem BioAssay data set” (2004)
